# Data: patent US11007141B2, “Oral preparation and preparation method thereof” (GUANGZHOU XIANGXUE PHARMACEUTICAL CO., LTD., priority 2015, dated 2021)
# Read-outs that look alike come from different tables or passages of the source.
# Assays:
# [1] = for Water (water-addition-precipitating critical point of drug solution): 100 mg drug; for dissolution in aqueous solution containing surfactant: magnetic stirring 1 hour
# Procedure: In this study, a dissolution test was performed using a single non-aqueous solvent ethanol.
# In this study, a dissolution test was also performed using composite solvents composed of PEG400 or PEG200 and absolute ethanol, respectively.
# In addition, in this study, dissolution tests were also performed using a single non-aqueous solvent propylene glycol, or a composite solvent composed of propylene glycol and other non-aqueous solvent.
# Next, the dilution stability of these two solvent systems was tested.
# [2] = Concentration of drug-containing HP-β-CD preparation after filtration (HPLC); conditions: 21 mg/ml drug-containing preparation in 30% HP-β-CD, pH 1.2; API not completely dissolved after 30 minutes ultrasound; 0.45 μm PES filter
# [3] = Tablet stability at high temperature (60° C.), high humidity (92.5% RH), −20° C.; format: physicochemical
# [4] = API 0.5 mg/ml, 20% γ-CD, molar ratio 174:1
# Procedure: (§1) Different kinds of cyclodextrins were dissolved with an aqueous hydrochloric acid solution (0.1N) having a pH value of 1.2 to determine the saturation concentration of each cyclodextrin.
# A certain amount of API was weighed and added into an appropriate volume of the cyclodextrin solution. […] The clear solution after the pH adjustment was left to stand to observe the state of the solution after standing for 2 hours, 4 hours, and 24 hours.
# [5] = Maximum solubility of cyclodextrins in hydrochloric acid solution pH 1.2
# Procedure: as §1
# (1) A certain amount of α-, β- and γ-cyclodextrin were weighed and added into a 10 mL volumetric flask, then an aqueous hydrochloric acid solution of pH 1.2 was gradually added until reaching the scale of the flask, and the flask was shocked and ultrasound was performed to dissolve the cyclodextrin. The maximum amount of cyclodextrin capable of being dissolved in a 10 mL solution was recorded.
smiles,measurement,setting,value
O=C(Cc1ccc(-c2ccc(N3CCOCC3)cc2)cn1)NCc1cccc(F)c1.O=S(=O)(O)c1ccccc1 [KX2-361.benzene sulfonate],Water (water-addition-precipitating critical point of drug solution),"[1]; Cremophor EL 17.1 g, 40° C.",6.7 g
same,Water (water-addition-precipitating critical point of drug solution),"[1]; Solutolo HS-15 10 g, 40° C.",4.5 g
same,Water (water-addition-precipitating critical point of drug solution),"[1]; Solutolo HS-15 15 g, 28° C.",8.7 g
same,Water (water-addition-precipitating critical point of drug solution),"[1]; Solutolo HS-15 20 g, 28° C.",12.6 g
same,dissolution in aqueous solution containing surfactant,[1]; drug containing 10 mg of KX2-361 in 0.6% Poloxamer 188 aqueous solution (50 ml),failed to completely dissolve
same,dissolution in aqueous solution containing surfactant,[1]; drug containing 10 mg of KX2-361 in 2% Tween80 aqueous solution (50 ml),failed to completely dissolve
same,dissolution in aqueous solution containing surfactant,[1]; drug containing 10 mg of KX2-361 in 8% Solutol HS15 aqueous solution (50 ml),failed to completely dissolve
same,dissolution in aqueous solution containing surfactant,[1]; drug containing 10 mg of KX2-361 in 10% Cremophor EL aqueous solution (50 ml),failed to completely dissolve
same,dissolution in propylene glycol,"[1]; drug containing 50 mg of KX2-361 in 20 ml of propylene glycol alone, a trace of small particles still present",could substantially be dissolved
same,solubility in ethanol,[1]; ethanol (95% v/v),1120 to 2380 µg/mL
same,"concentration after filtration, calibrated with HPLC",[2],20660 µg/mL
same,Total impurity (%),[3]; 0 day,0.33%
same,Total impurity (%),"[3]; High humidity, 20 days",0.31%
same,Total impurity (%),"[3]; High temperature, 10 days",0.32%
same,Total impurity (%),"[3]; High temperature, 20 days",0.32%
same,Total impurity (%),"[3]; −20° C., 20 days",0.36%
same,Solution phenomenon when the pH value was adjusted to 4,[4],turbid
OC[C@H]1O[C@@H]2O[C@H]3[C@H](O)[C@@H](O)[C@@H](O[C@H]4[C@H](O)[C@@H](O)[C@@H](O[C@H]5[C@H](O)[C@@H](O)[C@@H](O[C@H]6[C@H](O)[C@@H](O)[C@@H](O[C@H]7[C@H](O)[C@@H](O)[C@@H](O[C@H]1[C@H](O)[C@H]2O)O[C@@H]7CO)O[C@@H]6CO)O[C@@H]5CO)O[C@@H]4CO)O[C@@H]3CO [α-cyclodextrin],maximum solubility,[5]; aqueous hydrochloric acid solution of a pH value of 1.2,about 8%
OC[C@H]1O[C@@H]2O[C@H]3[C@H](O)[C@@H](O)[C@@H](O[C@H]4[C@H](O)[C@@H](O)[C@@H](O[C@H]5[C@H](O)[C@@H](O)[C@@H](O[C@H]6[C@H](O)[C@@H](O)[C@@H](O[C@H]7[C@H](O)[C@@H](O)[C@@H](O[C@H]8[C@H](O)[C@@H](O)[C@@H](O[C@H]1[C@H](O)[C@H]2O)O[C@@H]8CO)O[C@@H]7CO)O[C@@H]6CO)O[C@@H]5CO)O[C@@H]4CO)O[C@@H]3CO [β-cyclodextrin],maximum solubility,[5],about 1%
OC[C@H]1O[C@@H]2O[C@H]3[C@H](O)[C@@H](O)[C@@H](O[C@H]4[C@H](O)[C@@H](O)[C@@H](O[C@H]5[C@H](O)[C@@H](O)[C@@H](O[C@H]6[C@H](O)[C@@H](O)[C@@H](O[C@H]7[C@H](O)[C@@H](O)[C@@H](O[C@H]8[C@H](O)[C@@H](O)[C@@H](O[C@H]9[C@H](O)[C@@H](O)[C@@H](O[C@H]1[C@H](O)[C@H]2O)O[C@@H]9CO)O[C@@H]8CO)O[C@@H]7CO)O[C@@H]6CO)O[C@@H]5CO)O[C@@H]4CO)O[C@@H]3CO [γ-cyclodextrin],maximum solubility,[5],about 20%
